The record followed here is ChEMBL document CHEMBL1201862, “PubChem BioAssay data set” (2004).

Series [1] addresses T1, High affinity choline transporter 1 (Homo sapiens, UniProt Q9GZV3).
T1 sequence (Q9GZV3 whole entry): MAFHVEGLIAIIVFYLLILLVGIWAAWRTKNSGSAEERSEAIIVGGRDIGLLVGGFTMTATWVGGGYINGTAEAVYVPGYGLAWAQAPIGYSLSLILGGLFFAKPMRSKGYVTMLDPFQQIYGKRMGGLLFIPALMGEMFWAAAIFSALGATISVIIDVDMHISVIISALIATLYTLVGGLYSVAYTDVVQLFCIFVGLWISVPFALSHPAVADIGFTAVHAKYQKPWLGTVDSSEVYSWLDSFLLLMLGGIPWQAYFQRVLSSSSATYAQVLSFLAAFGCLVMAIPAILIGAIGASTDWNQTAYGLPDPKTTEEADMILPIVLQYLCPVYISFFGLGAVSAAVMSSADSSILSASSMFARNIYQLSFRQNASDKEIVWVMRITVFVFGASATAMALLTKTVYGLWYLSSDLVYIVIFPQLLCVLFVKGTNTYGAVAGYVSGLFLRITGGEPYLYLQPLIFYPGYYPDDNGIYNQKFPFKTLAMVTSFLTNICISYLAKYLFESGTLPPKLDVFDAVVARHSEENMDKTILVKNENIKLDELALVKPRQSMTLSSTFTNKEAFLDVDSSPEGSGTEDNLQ
The experiment in a line: CHT inhibitors, dose response, cell-based, 10-point CRC, membrane potential dye (AID 588401).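 Further: membrane potential dye fluorescence of choline-evoked depolarization via CHT.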 It counts as functional.

For series [2], the target named is T1, High affinity choline transporter 1. The experiment in a line: CHT inhibitors, dose response, cell-based, 5-point CRC, membrane potential dye (AID 504840). In kind it is functional.
For series [3], the target named is T2, Apoptotic protease-activating factor 1 (Homo sapiens, UniProt O14727).
T2 sequence (O14727 whole entry): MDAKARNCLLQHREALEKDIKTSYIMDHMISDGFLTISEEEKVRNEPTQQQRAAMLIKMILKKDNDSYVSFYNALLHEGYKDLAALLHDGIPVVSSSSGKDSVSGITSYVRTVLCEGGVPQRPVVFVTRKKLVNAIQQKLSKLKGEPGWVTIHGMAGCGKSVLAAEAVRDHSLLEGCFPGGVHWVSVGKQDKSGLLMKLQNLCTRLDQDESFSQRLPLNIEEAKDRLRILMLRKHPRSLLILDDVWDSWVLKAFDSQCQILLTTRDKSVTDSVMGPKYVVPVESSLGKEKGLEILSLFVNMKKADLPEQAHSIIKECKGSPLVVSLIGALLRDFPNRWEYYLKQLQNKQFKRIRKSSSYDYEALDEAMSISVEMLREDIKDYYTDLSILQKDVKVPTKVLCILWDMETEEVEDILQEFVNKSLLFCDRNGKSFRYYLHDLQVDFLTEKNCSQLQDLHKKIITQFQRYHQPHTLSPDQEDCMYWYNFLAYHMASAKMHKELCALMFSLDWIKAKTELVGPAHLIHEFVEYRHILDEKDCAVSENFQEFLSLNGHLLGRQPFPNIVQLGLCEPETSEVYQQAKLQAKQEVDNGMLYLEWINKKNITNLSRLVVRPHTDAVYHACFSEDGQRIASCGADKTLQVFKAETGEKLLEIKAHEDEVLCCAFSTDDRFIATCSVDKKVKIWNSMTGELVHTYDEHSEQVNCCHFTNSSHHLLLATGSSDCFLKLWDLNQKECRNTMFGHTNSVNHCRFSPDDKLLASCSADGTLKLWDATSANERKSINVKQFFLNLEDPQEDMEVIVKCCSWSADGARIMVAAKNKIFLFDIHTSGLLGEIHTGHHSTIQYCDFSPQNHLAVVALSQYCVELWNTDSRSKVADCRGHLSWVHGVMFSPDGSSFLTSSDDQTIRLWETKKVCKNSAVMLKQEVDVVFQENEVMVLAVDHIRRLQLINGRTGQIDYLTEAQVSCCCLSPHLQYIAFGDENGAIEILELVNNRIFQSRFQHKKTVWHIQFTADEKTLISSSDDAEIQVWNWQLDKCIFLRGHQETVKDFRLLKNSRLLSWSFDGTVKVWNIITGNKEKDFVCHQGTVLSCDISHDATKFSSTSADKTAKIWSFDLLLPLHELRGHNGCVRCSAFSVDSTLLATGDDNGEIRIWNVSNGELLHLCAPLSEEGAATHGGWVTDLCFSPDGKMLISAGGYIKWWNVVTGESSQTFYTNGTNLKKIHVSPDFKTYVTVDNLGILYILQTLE
Briefly: SAR analysis of small molecule Activators of Apaf-1 in a Fluorescent assay. In kind it is functional. To be noted: read-out: EC50_Mean.

In series [4] the target is T3, Calpain-2 catalytic subunit (Sus scrofa, UniProt P43367).
T3 sequence (P43367 whole entry): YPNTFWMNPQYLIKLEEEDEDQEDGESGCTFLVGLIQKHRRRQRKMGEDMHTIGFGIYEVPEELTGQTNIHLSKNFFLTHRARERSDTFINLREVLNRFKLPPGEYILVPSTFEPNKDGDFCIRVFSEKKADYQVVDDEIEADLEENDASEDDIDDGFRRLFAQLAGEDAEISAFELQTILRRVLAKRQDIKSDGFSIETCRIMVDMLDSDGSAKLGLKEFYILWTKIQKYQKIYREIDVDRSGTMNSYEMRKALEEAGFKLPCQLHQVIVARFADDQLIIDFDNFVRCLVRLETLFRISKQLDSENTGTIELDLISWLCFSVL
Briefly: pig calpain II inhibitor potency, dose response, biochemical, fluorogenic peptide substrate (AID 1420). In kind it is functional.

For another series, the target named is SUMO-activating enzyme (Homo sapiens, UniProt Q9UBT2). Briefly: SUMOylation inhibitor hit validation, confirmation, SUMOylation inhibitor project, biochemical, AlphaScreen (AID 2018). In kind it is functional.
SUMO-activating enzyme, sequence (Q9UBE0 whole entry): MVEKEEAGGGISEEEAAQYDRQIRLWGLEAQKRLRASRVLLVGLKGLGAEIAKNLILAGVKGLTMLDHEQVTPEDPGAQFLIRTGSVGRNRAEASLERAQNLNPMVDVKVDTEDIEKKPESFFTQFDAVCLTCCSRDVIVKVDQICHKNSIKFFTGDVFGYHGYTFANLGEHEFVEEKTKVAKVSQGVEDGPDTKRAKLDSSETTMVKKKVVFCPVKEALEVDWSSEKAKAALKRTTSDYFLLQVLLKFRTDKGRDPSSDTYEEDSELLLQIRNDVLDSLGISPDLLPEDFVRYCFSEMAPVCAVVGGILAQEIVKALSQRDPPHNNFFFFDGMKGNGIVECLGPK
SUMO-activating enzyme, sequence (Q9UBT2 whole entry): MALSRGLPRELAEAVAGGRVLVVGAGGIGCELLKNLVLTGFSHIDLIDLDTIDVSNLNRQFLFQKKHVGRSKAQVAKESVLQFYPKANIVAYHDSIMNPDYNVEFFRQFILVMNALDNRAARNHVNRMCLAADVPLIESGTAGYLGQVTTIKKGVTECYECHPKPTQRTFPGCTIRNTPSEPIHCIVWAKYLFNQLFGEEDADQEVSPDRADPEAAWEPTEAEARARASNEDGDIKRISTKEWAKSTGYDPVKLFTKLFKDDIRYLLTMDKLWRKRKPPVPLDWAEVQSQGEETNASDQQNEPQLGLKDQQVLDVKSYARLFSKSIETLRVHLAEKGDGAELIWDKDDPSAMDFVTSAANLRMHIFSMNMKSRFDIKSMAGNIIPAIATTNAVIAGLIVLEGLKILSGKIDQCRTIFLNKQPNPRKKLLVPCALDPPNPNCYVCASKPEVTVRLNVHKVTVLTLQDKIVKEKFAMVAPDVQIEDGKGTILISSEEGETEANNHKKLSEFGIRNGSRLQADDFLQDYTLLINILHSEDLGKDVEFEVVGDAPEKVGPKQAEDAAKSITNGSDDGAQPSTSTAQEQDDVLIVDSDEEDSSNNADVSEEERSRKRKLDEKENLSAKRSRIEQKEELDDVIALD
The target of another series is T4, Cytochrome P450 1A2 (Homo sapiens, UniProt P05177).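 Further: PubChem cytochrome P450 panel assay, CYP1A2 panel member.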
T4 sequence (P05177 whole entry): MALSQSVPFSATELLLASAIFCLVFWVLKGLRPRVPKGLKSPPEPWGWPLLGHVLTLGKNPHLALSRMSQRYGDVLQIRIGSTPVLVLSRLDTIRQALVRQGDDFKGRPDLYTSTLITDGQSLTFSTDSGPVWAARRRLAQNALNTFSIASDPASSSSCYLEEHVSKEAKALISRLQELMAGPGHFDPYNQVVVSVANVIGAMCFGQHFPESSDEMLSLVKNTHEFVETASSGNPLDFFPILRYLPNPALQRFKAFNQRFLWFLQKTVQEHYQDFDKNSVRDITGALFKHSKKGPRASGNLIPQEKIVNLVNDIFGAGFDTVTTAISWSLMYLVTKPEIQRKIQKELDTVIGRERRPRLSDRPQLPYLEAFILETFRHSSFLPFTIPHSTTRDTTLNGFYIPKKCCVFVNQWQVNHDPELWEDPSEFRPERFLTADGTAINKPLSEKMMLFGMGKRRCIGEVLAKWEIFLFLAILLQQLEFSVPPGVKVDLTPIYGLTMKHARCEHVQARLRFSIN

Series [5] concerns the target T5, Cytochrome P450 3A4 (Homo sapiens, UniProt P08684).
For a further series, the target named is Cytochrome P450 2C9 (Homo sapiens, UniProt P11712).
Cytochrome P450 2C9, sequence (P11712 whole entry): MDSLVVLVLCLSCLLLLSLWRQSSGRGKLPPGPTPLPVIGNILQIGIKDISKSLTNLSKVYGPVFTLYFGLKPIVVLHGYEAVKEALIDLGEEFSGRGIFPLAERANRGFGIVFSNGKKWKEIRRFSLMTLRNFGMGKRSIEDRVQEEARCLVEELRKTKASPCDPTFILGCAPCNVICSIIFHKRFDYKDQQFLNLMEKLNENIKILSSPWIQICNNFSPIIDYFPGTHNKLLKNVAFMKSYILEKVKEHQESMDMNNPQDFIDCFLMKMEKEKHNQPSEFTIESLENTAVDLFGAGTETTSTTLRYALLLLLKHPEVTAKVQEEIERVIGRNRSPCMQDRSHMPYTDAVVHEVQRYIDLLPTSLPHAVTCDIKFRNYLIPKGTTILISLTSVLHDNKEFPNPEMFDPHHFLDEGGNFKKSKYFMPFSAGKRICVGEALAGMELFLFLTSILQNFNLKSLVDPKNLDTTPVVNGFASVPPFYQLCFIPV
Another series has as its system P388. Briefly: cells. In kind it is functional. To be noted: Mus musculus.
A further series concerns SN12K1. Briefly: cells. To be noted: Homo sapiens. In kind it is functional.
Another series deals with P388/ADR. Briefly: cells. In kind it is functional. To be noted: Mus musculus.
Series [6] in a line: growth induction of Burl-1 ts yeast mutant, dose response, counter-screen for SUMOylation pathway inhibitor project, whole organism, S. cerevisiae, luminescence (AID 463199). It counts as functional.
The target of series [7] is T6, Heat shock factor protein 1 (Mus musculus, UniProt P38532).
T6 sequence (P38532 whole entry): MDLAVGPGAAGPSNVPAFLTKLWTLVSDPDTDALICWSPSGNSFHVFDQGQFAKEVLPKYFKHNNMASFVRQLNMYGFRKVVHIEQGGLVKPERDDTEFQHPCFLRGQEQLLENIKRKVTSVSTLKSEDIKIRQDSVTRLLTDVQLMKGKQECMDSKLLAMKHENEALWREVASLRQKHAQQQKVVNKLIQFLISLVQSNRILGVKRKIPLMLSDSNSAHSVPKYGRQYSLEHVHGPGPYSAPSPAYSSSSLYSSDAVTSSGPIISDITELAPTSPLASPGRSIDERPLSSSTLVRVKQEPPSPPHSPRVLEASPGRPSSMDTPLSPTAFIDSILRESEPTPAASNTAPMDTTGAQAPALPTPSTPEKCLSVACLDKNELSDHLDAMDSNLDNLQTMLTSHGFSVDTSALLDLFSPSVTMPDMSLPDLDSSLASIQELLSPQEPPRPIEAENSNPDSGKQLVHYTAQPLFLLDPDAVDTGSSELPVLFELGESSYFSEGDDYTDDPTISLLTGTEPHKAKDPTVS
The experiment in a line: HSF1 potentiators in luciferase reporter cells, confirmation, cell-based, NIH3T3, luminescence, dose retest (AID 435004).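 Further: stress induced by proteasome inhibitor MG132 added 30 min after compound; luciferase reporter driven by HSF1 response element in NIH3T3 cells; actives raise luminescence as potentiators of the MG132 stress response.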 It counts as functional.

Series [8] has as its target Heat shock protein HSP 90-alpha (Homo sapiens, UniProt P07900). In kind it is functional, organism-based.
The target of series [9] is T5, Cytochrome P450 3A4. To be noted: Potency.
Series [10] concerns the target T2, Apoptotic protease-activating factor 1. In kind it is functional.
The next series has as its system H9c2. Briefly: cells. In kind it is functional, cell-based. To be noted: Rattus norvegicus, H9c2, Myocardium.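 Further: confirmatory concentration-response retest of ultra-high-throughput screening hits for modulation of myocardial damage; cell death induced by hydrogen peroxide oxidative stress; compound pretreatment for 60 min then peroxide exposure for 2 h; potency is for protecting the cells against peroxide damage rather than for killing them.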
The test system of series [11] is Vero. The experiment in a line: cells. It counts as functional, cell-based. To be noted: Chlorocebus sabaeus.
The test system of series [12] is Vero. Briefly: cells. In kind it is functional. To be noted: Chlorocebus sabaeus.

The source made the active and inactive calls.
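Wherever EC50 Mean is given: caspase-3 cleavage of fluorogenic Rh110 DEVD substrate downstream of apoptosome activation.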

T5 sequence (P08684 whole entry): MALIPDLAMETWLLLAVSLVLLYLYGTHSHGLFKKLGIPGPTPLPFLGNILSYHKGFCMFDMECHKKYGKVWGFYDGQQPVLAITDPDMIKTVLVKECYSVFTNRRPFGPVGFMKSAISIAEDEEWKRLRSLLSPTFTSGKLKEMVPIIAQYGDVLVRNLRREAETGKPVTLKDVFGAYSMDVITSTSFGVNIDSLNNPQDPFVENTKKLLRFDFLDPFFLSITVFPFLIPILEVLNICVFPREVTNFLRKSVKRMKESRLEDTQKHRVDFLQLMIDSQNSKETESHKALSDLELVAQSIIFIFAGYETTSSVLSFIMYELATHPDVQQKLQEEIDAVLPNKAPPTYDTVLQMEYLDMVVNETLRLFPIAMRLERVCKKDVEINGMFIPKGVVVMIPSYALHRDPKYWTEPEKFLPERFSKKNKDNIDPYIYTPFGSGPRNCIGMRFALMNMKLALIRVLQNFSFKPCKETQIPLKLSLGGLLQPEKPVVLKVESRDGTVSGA

As to `CCOC(=O)c1cc(C(=O)NC(C)c2ccccc2)c(O)nc1C` (stereo not drawn), the IC50 in [1] was 0.34 µM (active); in series [2] it was 0.798 µM (active).

For the compound `COc1cc(NCC(C)C(=O)O)cc(OC)c1OC` (stereo not drawn), the EC50 in [3] was > 100 µM (inactive).

On to `Cc1ccccc1NC(=O)c1ccc(N/N=C/c2ccccc2O)c([N+](=O)[O-])c1`, for which the IC50 in [4] is 18.9 µM (not active); on SUMO-activating enzyme, 67.3 µM (active). For the same compound, the AC50 at Cytochrome P450 1A2 is 14.1 µM (inconclusive); on Cytochrome P450 3A4 [5] it was 4.47 µM (inconclusive); at Cytochrome P450 2C9 it was “inconclusive”.

As to `C=C1CC2CC[C@@]34C[C@@H]5O[C@@H]6C(O[C@H]7CC[C@H](CC(=O)OC8[C@@H](C)C9OC%10C[C@]%11(C[C@@H]%12O[C@@]%13(C[C@@H](C)[C@@H]%12O%11)C[C@H](C)[C@@H]%11OC%12CC(C(O)CO)OC%12C[C@@H]%11O%13)OC%10CC9O[C@H]8C[C@H]8O[C@@H](CC[C@@H]1O2)C[C@@H](C)C8=C)O[C@@H]7[C@@H]6O3)C5O4` (stereo partly drawn), the GI50 was 0.000148 µM (active) in the series on P388, 0.000148 µM (active) with SN12K1 and 0.00416 µM (active) in the series with P388/ADR.

`O=C(NCCN1CCOCC1)Nc1ccc(Cl)cc1Cl`: the AC50 in series [6] was 68.1 µM (active).

With `CCCCn1c(N)c(N(CC(C)C)C(=O)CSCC(=O)Nc2cccc(C)c2)c(=O)[nH]c1=O`, the AC50 in series [6] was 54.1 µM (active).

On to `O=C(O)CC1=C(Nc2ccccc2)C(=O)N(c2ccccc2)C1c1ccc(Cl)cc1` (stereo not drawn), for which the EC50 in series [7] is > 260 µM (inactive). Moreover, the IC50 in [1] was 2.7 µM (active); in series [2], 8.1 µM (active).

`Cc1ccc(S(=O)(=O)N(C(=O)c2ccncc2)c2ccc(OC(=O)c3ccncc3)cc2)c(C)c1`: in [8], the AC50 is 1.72 µM (active).

Regarding `CC1OC(=O)C(C(C)C)NC(=O)C(C(C)C)OC(=O)C(C(C)C)NC(=O)C(C)OC(=O)C(C(C)C)NC(=O)C(C(C)C)OC(=O)C(C(C)C)NC(=O)C(C)OC(=O)C(C(C)C)NC(=O)C(C(C)C)OC(=O)C(C(C)C)NC1=O` (stereo not drawn), the values for the GI50 with P388, in the series on SN12K1 and with P388/ADR were 0.0025 µM (active), 0.00281 µM (active) and 0.00396 µM (active), respectively. The AC50 at Cytochrome P450 3A4 [9] was 12.6 µM (inconclusive).

Take `Cc1cccc(C)c1N1C(=O)CC2(CC(c3ccc(F)cc3)=NO2)C1=O` (stereo not drawn): in series [3], the EC50 was > 100 µM (inactive).

Take `O=NN(CCCl)C(=O)N[C@H]1CC[C@@H](CC(=O)O)CC1`: the figures for the GI50 in the series on P388, in the series on SN12K1 and in the series on P388/ADR were 12.9 µM (inactive), > 100 µM (inactive) and 19.9 µM (inactive), respectively.

Turning to `CCc1nnc(NC(=O)CSc2nc3c(cc2C#N)CCCC3)s1`, the half-maximal activity concentration (AC50) in series [6] was 58.2 µM (active).

As for `Oc1c(Br)cc(Br)cc1/C=N/c1cccc2ncccc12`, the IC50 in [10] was 36 µM (active); in the series on H9c2, 13.5 µM (active); in series [1] it was 4.74 µM (active); in series [2], 4.19 µM (active). In [7], the EC50 is > 260 µM (inactive).

`COc1cccc(-n2c(CN3CCN(C)CC3)nc3ccc([N+](=O)[O-])cc3c2=O)c1`: the IC50 with Vero [11] is 14.7 µM (active). Also, in the series with Vero [12], the CC50 was > 25 µM (active).
